Measured values as given in US20160362416A1, “ANTIVIRAL COMPOUNDS” (Gilead Sciences, Inc., priority 2012, published 2016).

What was measured:
[1] = tested on: Y93N in genotype 1a NS5A replicon; assay: Resistance mutant replicon assay, genotype 1a NS5A Y93N; assay type: cell-based, HCV; settings: Hepatitis C virus, read-out: 1a Y93N (nM)
Summary of the method: (§1)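 Renilla luciferase activity in lysed cells after 72 h with 3-fold serially diluted compound gave EC50 by non-linear regression. Cells were Huh-7-derived cured-51, transiently transfected with mutant replicon RNA (1a or 1b Pi-RLuc backbone; 3a NS5A in 1b chimera) made by site-directed mutagenesis.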

[2] = tested on: stable HCV 1a RLuc replicon cells (genotype 1a H77 replicon); assay: HCV genotype 1a RLuc replicon reporter assay; assay type: cell-based; settings: Hepatitis C virus; stable genotype 1a H77 RLuc replicon cells, 72 hours
[3] = IV and PO single dose pharmacokinetic studies in SD rats; assay type: in vivo; settings: Sprague-Dawley, rat, plasma, male SD rats, IV infusion 1 mg/kg, oral gavage 2 mg/kg, read-out: Rat % F
Description: IV and PO Single Dose Pharmacokinetic Studies in SD Rats: The pharmacokinetics of selected compounds was characterized in male Sprague-Dawley (SD) rats (250-300 g). In this study, two groups of naïve purebred SD rats (N=3 per group, fasted over night) received the selected compound either as an intravenous (IV) infusion (1 mg/kg over 30 minutes) via the jugular vein or by oral gavage (2 mg/kg). The intravenous (IV) dosing vehicle was 5% ethanol, 35% polyethylene glycol 400 (PEG 400) and 60% water pH 2.0. The oral dosing vehicle was 5% ethanol, 55% PEG 400 and 40% citrate buffer pH 2.2.
Serial blood samples (approximately 0.3 mL each) were collected from jugular vein or other suitable vein at specified time points. For the IV infusion group, the blood samples were collected predose and at 0.25, 0.48, 0.58, 0.75, 1.5, 3, 6, 8, 12 and 24 hours after the start of infusion. For the oral group, the blood samples were collected predose and at 0.25, 0.50, 1, 2, 4, 6, 8, 12 and 24 hours after dosing. The blood samples were collected into Vacutainer™ tubes containing EDTA-K3 as the anti-coagulant and were centrifuged at approximately 4° C. to obtain plasma. The plasma samples were stored at −20° C. until analysis by LC/MS/MS.
A bioanalytical method utilizing high performance liquid chromatography coupled to tandem mass spectrometry (LC/MS/MS) was developed for analysis of the selected compound in rat plasma. Detection was performed using selected reaction monitoring (SRM); Ions representing the precursor (M+H)^+ species was selected in quadrupole 1 (Q1) and collided with argon gas in the collision cell (Q2) to generate specific product ion, which was subsequently monitored by quadrupole 3 (Q3). Standard curve and quality control samples were prepared in male rat plasma and processed in the same way as the test samples to generate quantitative data.
Pharmacokinetic parameters were generated using non-compartmental pharmacokinetic analysis (Phoenix WinNonlin, version 6.3). Values below the lower limit of quantification (LLOQ) were assigned a value of zero if predose and treated as missing thereafter. Area under the curve (AUC) was calculated using the linear trapezoidal rule. The oral bioavailability (% F) was determined by comparison of the area under the curve (AUC) of the compound and/or a metabolite generated in plasma following oral administration to that generated following intravenous administration.

[4] = tested on: stable HCV 1b RLuc replicon cells (genotype 1b Con1 replicon); assay: HCV genotype 1b RLuc replicon reporter assay; assay type: cell-based; settings: Hepatitis C virus; stable genotype 1b Con1 RLuc replicon cells, 72 hours
Summary of the method: (§2)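 Chimeric replicons for 3a and 4a use a Pi-RLuc reporter and were transiently transfected into Huh-Lunet cells; the 2b chimera (RLuc-Neo) was likewise transient in Huh-Lunet; 1b cells are stable. Cells were exposed to 3-fold serial compound dilutions for 72 h, then lysed. EC50s came from non-linear regression of Renilla luciferase signal.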

[5] = tested on: Q30E in genotype 1a NS5A replicon; assay: Resistance mutant replicon assay, genotype 1a NS5A Q30E; assay type: cell-based, HCV; settings: Hepatitis C virus, read-out: 1a Q30E (nM)
Description: (§3) Evaluation of cell-based anti-HCV activity: Antiviral potency (EC50) was determined using a Renilla luciferase (RLuc)-based HCV replicon reporter assay. To perform the assay for genotype 1 and 2a JFH-1, stable HCV 1a RLuc replicon cells (harboring a dicistronic genotype 1a H77 replicon that encodes a RLuc reporter), stable HCV lb RLuc replicon cells (harboring a dicistronic genotype 1b Conl replicon that encodes a RLuc reporter), or stable HCV 2a JFH-1 Rluc replicon cells (harboring a dicistronic genotype 2a JFH-1 replicon that encodes a RLuc reporter; with L31 present in NS5A) were dispensed into 384-well plates for EC50 assays. To perform the assay for genotype 2a (with M31 present in NS5A) or 2b, NS5A chimeric genotype 2a JFH-1 replicons that encodes a RLuc-Neo reporter and either genotype 2a J6 strain NS5A gene or genotype 2b MD2b-1 strain NS5A gene (both with M31 present) respectively, were either transiently transfected (t) into Huh-Lunet cells or were established as stably replicating replicon cells (s) is provided. Either cells were dispensed into 384-well plates for EC50 assays. To perform the assay for genotype 3 and 4, NS5A chimeric genotype 1b Conl replicons that encodes a Pi-RLuc reporter and either genotype 3a S52 strain NS5A gene or genotype 4a ED43 strain NS5A gene respectively, were transiently transfected (t) into Huh-Lunet cells, which were subsequently dispensed into 384-well plates. Compounds were dissolved in DMSO at a concentration of 10 mM and diluted in DMSO either manually or using an automated pipeting instrument. Serially 3-fold diluted compounds were either manually mixed with cell culture media and added to the seeded cells or directly added to the cells using an automated instrument. DMSO was used as a negative (solvent; no inhibition) control, and the protease inhibitor ITMN-191 was included at a concentration >100×EC50 as a positive control. 72 hours later, cells were lysed and Renilla luciferase activity quantified as recommended by the manufacturer (Promega-Madison, Wis.). Non-linear regression was performed to calculate EC50 values.
(§4) To determine the antiviral potency (EC50) against resistance mutants, resistance mutations, including M28T, Q30R, Q30H, Q30E, L31M, Y93C, Y93H, and Y93N in genotype 1a NS5A, Y93H and L31V/Y93H in genotype 1b NS5A, and Y93H for in genotype 3a NS5A, were introduced individually into either 1a Pi-Rluc or 1b Pi-Rluc replicons by site directed mutagenesis. Replicon RNA of each resistant mutant was transiently transfected into Huh-7-derived cured-51 cells and antiviral potency was determined on these transfected cells as described above.

[6] = tested on: Y93H in genotype 3a NS5A replicon; assay: Resistance mutant replicon assay, genotype 3a NS5A Y93H; assay type: cell-based, HCV; settings: Hepatitis C virus, read-out: 3a Y93H (nM)
Summary of the method: as §1

[7] = tested on: L31V/Y93H in genotype 1b NS5A replicon; assay: Resistance mutant replicon assay, genotype 1b NS5A L31V/Y93H; assay type: cell-based, HCV; settings: Hepatitis C virus, read-out: 1b L31V/Y93H (nM)
Description: as §3, §4

[8] = tested on: NS5A chimeric genotype 2a JFH-1 replicon with genotype 2b MD2b-1 strain NS5A gene (M31); assay: HCV genotype 2b NS5A chimeric replicon assay, transient (t); assay type: cell-based; settings: Hepatitis C virus, 72 h, read-out: 2b (t) (nM)
Description: as §3

[9] = tested on: Q30R in genotype 1a NS5A replicon; assay: Resistance mutant replicon assay, genotype 1a NS5A Q30R; assay type: cell-based, HCV; settings: Hepatitis C virus, read-out: 1a Q30R (nM)
Description: as §3, §4

[10] = tested on: NS5A chimeric genotype 1b Con1 replicon with genotype 3a S52 strain NS5A gene; assay: HCV genotype 3a NS5A chimeric replicon assay; assay type: cell-based; settings: Hepatitis C virus, 72 h, read-out: 3a (nM)
Summary of the method: as §2

[11] = tested on: Y93H in genotype 1a NS5A replicon; assay: Resistance mutant replicon assay, genotype 1a NS5A Y93H; assay type: cell-based, HCV; settings: Hepatitis C virus, read-out: 1a Y93H (nM)
Summary of the method: as §1

[12] = tested on: NS5A chimeric genotype 2a JFH-1 replicon with genotype 2b MD2b-1 strain NS5A gene (M31); assay: HCV genotype 2b NS5A chimeric replicon assay, stable (s); assay type: cell-based; settings: Hepatitis C virus, 72 h, read-out: 2b (s) (nM)
[13] = tested on: NS5A chimeric genotype 1b Con1 replicon with genotype 4a ED43 strain NS5A gene; assay: HCV genotype 4a NS5A chimeric replicon assay; assay type: cell-based; settings: Hepatitis C virus, 72 h, read-out: 4a (s) (nM)
[14] = tested on: NS5A chimeric genotype 2a JFH-1 replicon with genotype 2a J6 strain NS5A gene (M31); assay: HCV genotype 2a J6 NS5A chimeric replicon assay, transient (t); assay type: cell-based; settings: Hepatitis C virus, 72 h, read-out: 2a J6 (t) (nM)
[15] = tested on: stable HCV 2a JFH-1 Rluc replicon cells (L31 present in NS5A); assay: HCV genotype 2a JFH-1 RLuc replicon reporter assay; assay type: cell-based; settings: Hepatitis C virus, 72 h, read-out: 2a JFH (nM)

`CC[C@H]1C[C@@H](c2nc3ccc4cc5c(cc4c3[nH]2)OCc2cc(-c3cnc([C@@H]4CC[C@H](C)N4C(=O)[C@@H](NC(=O)OC)C(C)C)[nH]3)ccc2-5)N(C(=O)[C@@H](NC(=O)OC)C2CCOCC2)C1` [Comp 1, reference compound] gave an EC50 [1] of 2.05 nM, an EC50 [2] of 0.018 nM and a bioavailability [3] of 9.9%. For the same molecule, the EC50 [4] was 0.027 nM, the EC50 [5] was 0.319 nM and the EC50 [6] was 8.07 nM. For the same molecule, the EC50 [7] was 0.971 nM.

In the case of `COC(=O)N[C@H](C(=O)N1[C@@H](C)CC[C@H]1c1ncc(-c2ccc3c(c2)COc2cc4c(ccc5nc([C@@H]6CC[C@H](C)N6C(=O)[C@@H](NC(=O)OC)C6CCOCC6)[nH]c54)cc2-3)[nH]1)C1CCOCC1` [Comp 6, reference compound], the EC50 [2] is reported as 0.024 nM, the EC50 [8] is reported as 0.092 nM and the EC50 [9] is reported as 0.042 nM. It also gave an EC50 [10] of 0.075 nM, an EC50 [11] of 0.442 nM and an EC50 [4] of 0.051 nM. It also gave an EC50 [12] of 0.038 nM, an EC50 [5] of 0.101 nM and an EC50 [6] of 0.252 nM. The EC50 [13] was 0.014 nM, the EC50 [14] was 0.012 nM and the EC50 [15] was 0.012 nM.

In the case of `COC[C@H]1C[C@@H](c2ncc(-c3ccc4c(c3)COc3cc5c(ccc6nc([C@@H]7CC[C@H](C)N7C(=O)[C@@H](NC(=O)OC)C(C)C)[nH]c65)cc3-4)[nH]2)N(C(=O)[C@@H](NC(=O)OC)C2C[C@@H](C)O[C@H](C)C2)C1` (stereo partly drawn) [Example AB, Methyl {(2S)-1-[(2S,5S)-2-(9-{2-[(2S,4S)-1-{(2S)-2-[(2R,6R)-2,6-dimethyltetrahydro-2H-pyran-4-yl]-2-[(methoxycarbonyl)amino]acetyl}-4-(methoxymethyl)pyrrolidin-2-yl]-1H-imidazol-5-yl}-1,11-dihydroisochromeno[4′,3′:6,7]naphtho[1,2-d]imidazol-2-yl)-5-methylpyrrolidin-1-yl]-3-methyl-1-oxobutan-2-yl}carbamate], the EC50 [1] is reported as 0.418 nM, the EC50 [2] is reported as 0.026 nM and the EC50 [8] is reported as 0.024 nM. The EC50 [10] was 0.025 nM, the EC50 [11] was 0.163 nM and the EC50 [4] was 0.046 nM. For the same molecule, the EC50 [5] was 0.082 nM, the EC50 [6] was 8.77 nM and the EC50 [7] was 0.668 nM. It also gave an EC50 [13] of 0.006 nM, an EC50 [14] of 0.028 nM and an EC50 [15] of 0.011 nM.

Work on `CC[C@H]1CC[C@@H](c2nc3ccc4cc5c(cc4c3[nH]2)OCc2cc(-c3cnc([C@@H]4CC[C@H](C)N4C(=O)[C@@H](NC(=O)OC)C(C)C)[nH]3)ccc2-5)N1C(=O)[C@@H](NC(=O)OC)C1C[C@@H](C)O[C@H](C)C1` (stereo partly drawn) [Example AC, Methyl {(1S)-1-[(2R,6R)-2,6-dimethyltetrahydro-2H-pyran-4-yl]-2-[(2S,5S)-2-ethyl-5-(9-{2-[(2S,5S)-1-{(2S)-2-[(methoxycarbonyl)amino]-3-methylbutanoyl}-5-methylpyrrolidin-2-yl]-1H-imidazol-5-yl}-1,11-dihydroisochromeno[4′,3′:6,7]naphtho[1,2-d]imidazol-2-yl)pyrrolidin-1-yl]-2-oxoethyl}carbamate] yielded an EC50 [1] of 1.63 nM, an EC50 [2] of 0.025 nM and an EC50 [8] of 0.02 nM. For the same molecule, the EC50 [10] was 0.019 nM, the EC50 [11] was 0.832 nM and the EC50 [4] was 0.03 nM. It also gave an EC50 [5] of 0.312 nM, an EC50 [6] of 14.5 nM and an EC50 [7] of 1.33 nM. It also gave an EC50 [13] of 0.005 nM, an EC50 [14] of 0.003 nM and an EC50 [15] of 0.016 nM.

Molecule `CC[C@H]1C[C@@H](c2nc3ccc4cc5c(cc4c3[nH]2)OCc2cc(-c3cnc([C@@H]4CC[C@H](C)N4C(=O)[C@@H](NC(=O)OC)C(C)C)[nH]3)ccc2-5)N(C(=O)[C@@H](NC(=O)OC)C2C[C@@H](C)O[C@H](C)C2)C1` (stereo partly drawn) [Example AF, Methyl [(1S)-1-[(2R,6R)-2,6-dimethyltetrahydro-2H-pyran-4-yl]-2-{(2S,4S)-4-ethyl-2-[9-(2-{(2S,5S)-1-[N-(methoxycarbonyl)-L-valyl]-5-methylpyrrolidin-2-yl}-1H-imidazol-5-yl)-1,11-dihydroisochromeno[4′,3′:6,7]naphtho[1,2-d]imidazol-2-yl]pyrrolidin-1-yl}-2-oxoethyl]carbamate] has an EC50 [1] of 0.899 nM, an EC50 [2] of 0.022 nM and an EC50 [8] of 0.014 nM. For the same molecule, the EC50 [10] was 0.016 nM, the EC50 [11] was 0.268 nM and the EC50 [4] was 0.037 nM. It also gave an EC50 [5] of 0.097 nM, an EC50 [6] of 4.59 nM and an EC50 [7] of 0.18 nM. It also gave an EC50 [13] of 0.005 nM, an EC50 [14] of 0.003 nM and an EC50 [15] of 0.012 nM.
